Reference: patent US11166940B2, “Treatment of cardiac disorders by blocking SK4 potassium channel” (Ramot at Tel-Aviv University Ltd., priority 2016, dated 2021)

How the values were obtained:
SAN cells = experiment: Spontaneous APs / pacing rate of isolated SAN cells from WT mice (patch clamp); format: cell-based, mouse; settings: 2 μM TRAM-34 added to 50 nM isoproterenol
Method: (§1) WT and CASQ2 D307H KI mice were anesthetized with isofluorane and sacrificed by cervical dislocation. The heart was rapidly removed and transferred into Tyrode solution containing heparin. […] The area was cleaned, cut into small strips and washed into a Low Calcium Solution, containing (in mM): 140 NaCl, 5.4 KCl, 0.5 MgCl2, 1.2 KH2PO4, 5 HEPES-NaOH, 50 taurine, 5.5 glucose (pH 6.9). The osmolarity was adjusted if needed to 315 mOsm.
The same solution, supplemented with 1 mg/ml albumin, 200 μM CaCl2, collagenase Type I (Worthington) or liberase TH (Roche), protease (Sigma) and elastase (Sigma) was used for enzymatic digestion as previously described [See, Mesirca, P., et al. Nat Commun 5, 4664 (2014)]. In this step, the tissue was gently resuspended with a polished Pasteur pipette in this solution for 9-13 minutes at 37° C. SAN samples were then washed three times in a modified “Kraftbrühe” solution, containing (in mM): 70 glutamic acid, 80 KOH, 20 KCl, 10 γ-Hydroxybutyric acid sodium salt, 10 KH2PO4, 10 HEPES-KOH, 10 taurine, 1 mg/ml albumin, 0.1 EGTA-KOH (pH 7.2). The same solution was used to re-suspend the single cells with a pipet by vigorous up and down, between 3 to 5 minutes at 37° C. Cells were then gradually exposed to increasing concentrations of calcium, following a “Ca^2+ readaptation” protocol [Mesirca et al., 2014, supra]. Experiments were performed the same day at 33° C.
(§2) In all experiments, the coverslips were perfused at 33° C. with an external solution containing (in mM): 140 NaCl, 4 KCl, 11 Glucose, 1.2 MgCl2, 1.8 CaCl2, 5.5 HEPES titrated to pH 7.4 with NaOH and adjusted at 320 mOsm with sucrose.
The spontaneous automaticity of isolated SAN cells was recorded under perforated-patch conditions by adding 30 μM β-escin49 to the intracellular solution containing (in mM): 130 KCl, 10 NaCl, 10 HEPES, 0.2 EGTA-KOH, 2 MgATP, 6.6 Phosphocreatine, 0.05 cAMP and 1 μM free Ca^2+ (pH 7.2). To record SK4 K+ current, a voltage ramp protocol was applied. SAN and hiPS-CMs were held at −40 mV and −20 mV, respectively to substantially inactivate voltage-gated Na^+ and Ca^2+ currents. Cells were stepped from −90 mV to +60 mV for 150 ms. Then, a cocktail (solution 1) containing (in mM) 0.3 cadmium, 0.025 ZD-7288 and 0.01 E-4031 was applied extracellularly to inhibit residual L-type and T-type voltage-gated Ca2+ currents, If and the IKr currents, respectively. […] For voltage-clamp recording of SAN cells, the intracellular solution was the same to that described above for recording spontaneous automaticity.
The spontaneous electric activity of the cell was recorded in the current clamp configuration of the patch clamp technique before (black trace) and during (violet trace) exposure to 2 μM clotrimazole.
FIG. 5E (Left) presents representative traces of spontaneous APs recorded in single SAN cell from WT mice.

[1] = system: intact SAN from CASQ2 D307H KI mice; experiment: Spontaneous calcium transients ex vivo in intact SAN tissue from CASQ2-D307H KI mice (Fluo-4 AM); format: cell-based, mouse; settings: 2 μM TRAM-34 added to 100 nM isoproterenol
Method: SAN tissue preparations were dissected ex vivo from WT and CASQ2-D307H KI mice as described in Torrente, A. G., et al. Proc Natl Acad Sci USA 112, 9769-9774 (2015). The dissected whole SAN tissue was pinned on a hand-made chamber and was incubated in a Tyrode solution containing 10 μM Fluo-4 AM (Thermo Fisher Scientific) and pluronic acid for 1 hour at 37° C. in the dark. The SAN tissue was washed in Tyrode at 37° C. in the dark for 10 minutes before experiments. Fluorescence of calcium transients was recorded using a photomultiplier (PTi D-104) at 35° C. and the analog signals were digitized using Digidata 1440 (Molecular Devices) and analyzed with pCLAMP 10.5 software.
To investigate the spontaneous calcium transients of the SAN, intact SAN tissue preparations dissected ex vivo from WT and CASQ2-D307H KI mice were exposed to Fluo-4 AM as previously described [Torrente, A. G., et al. Proc Natl Acad Sci USA 112, 9769-9774 (2015)].
FIG. 6B presents representative traces of different types of calcium transient abnormalities recorded in intact SAN from CASQ2 D307H KI mice, termed as “local Ca^2+ release” (upper left), “double humped transients” (upper right), “large-stored released Ca^2+ waves” (lower left) and “calcium alternans” (lower right).
FIG. 6C presents representative trace of spontaneous calcium transients recorded from intact SAN of CASQ2 D307H KI. The baseline rate of calcium transients (control, black trace) yielded chaotic calcium transients (red trace) following incubation of the SAN with 100 nM isoproterenol.

[2] = system: SAN cells from CASQ2-D307H KI mice; experiment: Spontaneous APs and DADs of isolated SAN cells from CASQ2 D307H KI mice; format: cell-based, mouse; settings: 2 μM TRAM-34 added to 50 nM isoproterenol
Method: as §1
The same solution, supplemented with 1 mg/ml albumin, 200 μM CaCl2, collagenase Type I (Worthington) or liberase TH (Roche), protease (Sigma) and elastase (Sigma) was used for enzymatic digestion as previously described [See, Mesirca, P., et al. Nat Commun 5, 4664 (2014)]. In this step, the tissue was gently resuspended with a polished Pasteur pipette in this solution for 9-13 minutes at 37° C. SAN samples were then washed three times in a modified “Kraftbrühe” solution, containing (in mM): 70 glutamic acid, 80 KOH, 20 KCl, 10 γ-Hydroxybutyric acid sodium salt, 10 KH2PO4, 10 HEPES-KOH, 10 taurine, 1 mg/ml albumin, 0.1 EGTA-KOH (pH 7.2). […] Cells were then gradually exposed to increasing concentrations of calcium, following a “Ca^2+ readaptation” protocol [Mesirca et al., 2014, supra]. […]
FIG. 5F (Left) presents representative traces of spontaneous APs recorded in single SAN cell from CASQ2 D307H KI mice. […]

CPVT2 hiPSC-CMs = experiment: Spontaneous APs and DADs in hiPS-CMs derived from CPVT2 (CASQ2 D307H) patients; format: cell-based, human; settings: 5 μM TRAM-34 added to 3 μM isoproterenol
Method: as §2
FIG. 4F (Left) presents representative traces of spontaneous APs recorded in hiPS-CM derived from a CPVT2 (CASQ2 D307H) patients. From a regular pacing (black trace), DADs appeared when the cell was exposed to 3 μM isoproterenol (red trace, arrows). […] The suppression of cell 540 automaticity was reversible upon washout (blue trace). FIG. 4F (Right) present bar graphs showing data summary of pacing rate (n=17), on APD50 (n=17) and DADs (Normalized to Ctrl; one-way ANOVA***P=0.0001, n=15).

[3] = system: T type and L-type Ca2+ currents; experiment: Selectivity: voltage-ramp protocol in hESC-CMs, zero free Ca2+ in pipet; format: cell-based, human; settings: 5 μM TRAM-34; zero free Ca2+ in pipet solution; n=7
Method: The experiments were performed in zero free Ca2+ in the pipet solution.

How did the DD slope (SAN cells) turn out when `Clc1ccccc1C(c1ccccc1)(c1ccccc1)n1cccn1` [TRAM-34, 1-[(2-chlorophenyl)diphenylmethyl]-1H-pyrazole] was run?
The DD slope was “markedly reduced the DD slope”.

What about the MDP (SAN cells) of the same compound?
The MDP was “depolarized the MDP”.

What about the beating rate (SAN cells) of the same compound?
The beating rate was “decreased the beating rate”.

What about the “cells in which pacing activity stopped” value (SAN cells) of the same compound?
Its value is 3 out of 7.

And the “number of SANs displaying double humped transients or large-stored released Ca2+ waves” value [1]?
The value was “zero”.

And the “shapes of isoproterenol induced aberrant calcium waves” value [1]?
Its value is “normalized the shapes of isoproterenol induced aberrant calcium waves”.

What about the “occurrence of DADs” value [2] of the same compound?
The value was “drastically reduced”.

And the “number of DADs” value (CPVT2 hiPSC-CMs)?
The value was “drastically reduced the number of DADs”.

What about the spontaneous activity (CPVT2 hiPSC-CMs) of the same compound?
Its spontaneous activity is “reversible cessation of the spontaneous activity”.

And the “T type and L type Ca2+ currents (two inward humps)” value [3]?
The value was “does not alter the voltage-gated Ca2+ currents”.
